Experimental data from US20210317140A1, “Heterocyclic Compounds and Methods of Use” (MEDIVATION TECHNOLOGIES, INC, priority 2013, published 2021).

What was measured:
[1] = target: T1, PI3Kδ (Homo sapiens, UniProt O00329); assay: PI3Kδ kinase assay (HTRF, PIP3 detection); type: biochemical; conditions: for PI3Kδ @ 0.1 μM (% Inh): 0.1 μM compound; for PI3Kδ @ 0.1 μM (% Inh) / PI3Kδ @ 1 μM (% Inh) / PI3Kδ @ 0.01 μM (% Inh): 10 μM ATP; for PI3Kδ @ 1 μM (% Inh): 1 μM compound; for PI3Kδ @ 0.01 μM (% Inh): 0.01 μM compound; for IC50: 10 dose IC50, 10 μM ATP
T1 construct: purchased Reaction Biology Corporation
From the text: (§1) Compounds of the invention were profiled in a 10 dose IC50 panel against BTK and PI3Kδ, both provided by Reaction Biology Corporation.
PI3Kδ assay: The PIP3 product is detected by displacement of biotin-PIP3 from an energy transfer complex consisting of Europium labeled anti-GST monoclonal antibody, a GST-tagged pleckstrin homology (PH) domain, biotinylated PIP3 and Streptavidin-Allophycocyanin (APC). […] The PIP3 product formed by PI 3-Kinase(h) activity displaces biotin-PIP3 from the complex resulting in a loss of energy transfer and thus a decrease in signal. This is a 3-step reaction: First, the kinase reaction with PIP2 substrate is carried out in the presence of ATP (10 μM), and the reaction is quenched with stop Solution, and then finally detect by adding Detection Mixture followed by incubation (10 min). Reaction procedure: 1) Prepare substrate in freshly prepared Reaction Buffer. 2) Deliver kinase into the substrate solution and gently mix. 3) Deliver compounds in 100% DMSO (1 μM) into the kinase reaction mixture by Acoustic technology (Echo550; nanoliter range), incubate for 10 min at RT. 4) Deliver ATP into the reaction mixture to initiate the reaction. 5) Incubate for 30 min at 30° C. 6) Quench the reaction with Stop Solution. 7) Add Detection Mixture, and incubate for overnight. […] The emission ratio is converted into μM PIP3 production based on PIP3 standard curves. The nonlinear regression to obtain the standard curve and IC50 values are performed using Graphpad Prism software. Assay Buffer: HEPES 50 mM (pH7.0), NaN3 0.02%, BSA 0.01%, Orthovanadate 0.1 mM, 1% DMSO. Detection buffer: HEPES 10 mM (pH7.0), BSA 0.02%, KF 0.16 M, EDTA 4 mM. Substrate: 10 μM PIP2 substrate (PI(4,5)P2).

[2] = target: T2, BTK (Homo sapiens, UniProt Q06187); assay: BTK kinase assay (HotSpot, 33P ATP); type: biochemical; conditions: for BTK @ 0.1 μM (% Inh): 0.1 μM compound; for BTK @ 0.1 μM (% Inh) / BTK @ 1 μM (% Inh) / BTK @ 0.01 μM (% Inh): 10 μM ATP; for BTK @ 1 μM (% Inh): 1 μM compound; for BTK @ 0.01 μM (% Inh): 0.01 μM compound; for IC50: 10 dose IC50, 10 μM ATP
T2 construct: purchased Reaction Biology Corporation
Protocol: as §1
BTK assay: In vitro profiling protein kinases was performed using the “HotSpot” assay platform. Briefly, specific kinase/substrate pairs along with required cofactors were prepared in reaction buffer. Compounds were prepared as 10 mM stock solutions in DMSO. Compounds were delivered into the reaction, followed 15-20 minutes later by addition of a mixture of ATP (Sigma, St. Louis Mo.) and ^33P ATP (Perkin Elmer, Waltham Mass.) to a final concentration of 10 μM. […] IC50 values and curve fits were obtained using Prism (GraphPad Software). Buffer Conditions: 20 mM Hepes (pH 7.5), 10 mM MgCl2, 1 mM EGTA, 0.02% Brij35, 0.02 mg/mL BSA, 0.1 mM Na3VO4, 2 mM DTT, 1% DMSO.

T2 sequence (Q06187 whole entry): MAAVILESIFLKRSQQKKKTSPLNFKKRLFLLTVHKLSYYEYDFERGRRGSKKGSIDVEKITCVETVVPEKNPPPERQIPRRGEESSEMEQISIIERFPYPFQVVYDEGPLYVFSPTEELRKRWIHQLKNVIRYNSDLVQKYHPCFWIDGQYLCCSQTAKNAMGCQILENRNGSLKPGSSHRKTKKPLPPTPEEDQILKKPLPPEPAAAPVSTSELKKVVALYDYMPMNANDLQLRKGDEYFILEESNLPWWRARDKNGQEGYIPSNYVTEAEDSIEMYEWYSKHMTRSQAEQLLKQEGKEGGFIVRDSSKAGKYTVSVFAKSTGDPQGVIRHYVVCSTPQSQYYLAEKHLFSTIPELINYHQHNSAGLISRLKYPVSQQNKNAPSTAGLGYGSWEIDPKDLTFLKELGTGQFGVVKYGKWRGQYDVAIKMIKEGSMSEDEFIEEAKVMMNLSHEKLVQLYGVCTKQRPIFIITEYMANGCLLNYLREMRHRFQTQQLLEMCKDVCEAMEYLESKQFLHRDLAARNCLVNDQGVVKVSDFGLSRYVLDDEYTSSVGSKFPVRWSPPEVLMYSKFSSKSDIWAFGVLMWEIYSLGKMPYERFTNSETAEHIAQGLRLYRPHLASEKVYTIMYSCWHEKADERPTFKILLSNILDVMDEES
T1 sequence (O00329 whole entry): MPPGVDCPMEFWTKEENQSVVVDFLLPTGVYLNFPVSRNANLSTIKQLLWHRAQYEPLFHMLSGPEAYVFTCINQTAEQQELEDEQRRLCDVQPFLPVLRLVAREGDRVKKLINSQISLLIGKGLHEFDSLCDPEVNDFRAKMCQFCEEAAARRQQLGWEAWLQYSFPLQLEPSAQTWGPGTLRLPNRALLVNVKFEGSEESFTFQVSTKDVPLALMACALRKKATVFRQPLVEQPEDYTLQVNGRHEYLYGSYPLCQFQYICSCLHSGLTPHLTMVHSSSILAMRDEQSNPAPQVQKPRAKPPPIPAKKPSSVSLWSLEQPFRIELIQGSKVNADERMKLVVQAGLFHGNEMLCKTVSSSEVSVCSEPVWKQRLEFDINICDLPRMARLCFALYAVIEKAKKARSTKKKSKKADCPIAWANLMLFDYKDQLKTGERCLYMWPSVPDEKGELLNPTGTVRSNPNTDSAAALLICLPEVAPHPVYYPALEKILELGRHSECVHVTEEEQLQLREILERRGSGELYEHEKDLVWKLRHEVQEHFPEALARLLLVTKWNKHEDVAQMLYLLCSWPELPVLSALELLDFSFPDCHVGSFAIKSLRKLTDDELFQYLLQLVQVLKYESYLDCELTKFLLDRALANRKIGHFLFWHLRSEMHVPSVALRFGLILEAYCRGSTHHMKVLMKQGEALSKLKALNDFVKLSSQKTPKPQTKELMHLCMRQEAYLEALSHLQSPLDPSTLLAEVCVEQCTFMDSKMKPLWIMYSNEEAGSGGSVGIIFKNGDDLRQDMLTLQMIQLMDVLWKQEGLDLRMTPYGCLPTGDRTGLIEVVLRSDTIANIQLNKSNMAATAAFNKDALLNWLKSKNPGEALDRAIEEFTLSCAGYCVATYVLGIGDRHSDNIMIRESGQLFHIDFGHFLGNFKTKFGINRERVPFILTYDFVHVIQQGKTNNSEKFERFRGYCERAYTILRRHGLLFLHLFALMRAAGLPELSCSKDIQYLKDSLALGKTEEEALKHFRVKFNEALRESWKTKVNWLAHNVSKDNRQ
T1 sequence (P27986 whole entry partner): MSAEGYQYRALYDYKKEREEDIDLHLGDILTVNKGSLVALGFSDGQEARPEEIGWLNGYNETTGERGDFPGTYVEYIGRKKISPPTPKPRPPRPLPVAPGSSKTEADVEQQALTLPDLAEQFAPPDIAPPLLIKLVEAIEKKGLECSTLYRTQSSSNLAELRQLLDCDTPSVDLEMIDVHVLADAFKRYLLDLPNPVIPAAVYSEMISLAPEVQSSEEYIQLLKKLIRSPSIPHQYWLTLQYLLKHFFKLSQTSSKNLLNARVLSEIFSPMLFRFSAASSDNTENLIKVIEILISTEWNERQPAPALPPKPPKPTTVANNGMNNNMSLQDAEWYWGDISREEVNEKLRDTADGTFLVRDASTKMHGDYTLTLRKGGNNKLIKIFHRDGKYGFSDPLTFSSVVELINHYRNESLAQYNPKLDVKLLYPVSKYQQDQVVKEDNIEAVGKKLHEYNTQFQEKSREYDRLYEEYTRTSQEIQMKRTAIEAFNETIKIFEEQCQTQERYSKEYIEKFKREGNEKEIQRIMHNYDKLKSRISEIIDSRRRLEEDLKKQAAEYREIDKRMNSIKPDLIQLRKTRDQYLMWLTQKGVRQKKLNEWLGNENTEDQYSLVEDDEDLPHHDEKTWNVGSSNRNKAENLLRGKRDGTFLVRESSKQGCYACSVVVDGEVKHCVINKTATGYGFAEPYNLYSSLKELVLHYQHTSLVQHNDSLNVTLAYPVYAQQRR

Row | PI3Kδ @ 0.1 μM (% Inh) [1] [% Inh] | PI3Kδ @ 1 μM (% Inh) [1] [% Inh] | BTK @ 0.1 μM (% Inh) [2] [% Inh] | BTK @ 1 μM (% Inh) [2] [% Inh] | PI3Kδ @ 0.01 μM (% Inh) [1] [% Inh] | BTK @ 0.01 μM (% Inh) [2] [% Inh] | IC50 [1] [nM] | IC50 [2] [nM] | Structure (SMILES)
1 | −5.17 | 13.54 | 10.79 | 18.4 | – | – | – | – | COc1ccc(-c2nn(C3Cc4ccccc4C3)c3ncnc(N)c23)c(OC)c1OC [Compound No. 83, 1-(2,3-dihydro-1H-inden-2-yl)-3-(2,3,4-trimethoxyphenyl)-1H-pyrazolo[3,4-d]pyrimidin-4-amine]
2 | 41.21 | – | 66.35 | – | – | – | – | – | Nc1ncnc2c1c(-c1cccc(O)c1)nn2C1Cc2ccccc2C1 [Compound No. 40, 3-[4-amino-1-(2,3-dihydro-1H-inden-2-yl)-1H-pyrazolo[3,4-d]pyrimidin-3-yl]phenol]
3 | 19.59 | – | 33.72 | – | −1.19 | 8 | – | – | COc1cc(-c2nn(C3Cc4ccccc4C3)c3ncnc(N)c23)cc(F)c1F [Compound No. 91, 3-(3,4-difluoro-5-methoxyphenyl)-1-(2,3-dihydro-1H-inden-2-yl)-1H-pyrazolo[3,4-d]pyrimidin-4-amine]
4 | 4.96 | 60.21 | 19.61 | 61.7 | – | – | 328 | 791 | COc1cc(-c2nn(C3Cc4ccccc4C3)c3ncnc(N)c23)ccc1C(F)(F)F [Compound No. 69, 1-(2,3-dihydro-1H-inden-2-yl)-3-[3-methoxy-4-(trifluoromethyl)phenyl]-1H-pyrazolo[3,4-d]pyrimidin-4-amine]
5 | 40.18 | – | 12.19 | – | 32.92 | 7.68 | – | – | Nc1ccc(-c2nn(C3Cc4ccccc4C3)c3ncnc(N)c23)cn1 [Compound No. 96, 5-[4-amino-1-(2,3-dihydro-1H-inden-2-yl)-1H-pyrazolo[3,4-d]pyrimidin-3-yl]pyridin-2-amine]
6 | 17.93 | 5.79 | 14.08 | 19.76 | – | – | – | – | CC(=O)Nc1cccc(-c2nn(C3Cc4ccccc4C3)c3ncnc(N)c23)c1 [Compound No. 59, N-{3-[4-amino-1-(2,3-dihydro-1H-inden-2-yl)-1H-pyrazolo[3,4-d]pyrimidin-3-yl]phenyl}acetamide]
7 | 33.15 | 44.88 | 18.0 | 43.79 | – | – | – | – | NC(=O)/C=C/c1nn(C2Cc3ccccc3C2)c2ncnc(N)c12 [Compound No. 58, (2E)-3-[4-amino-1-(2,3-dihydro-1H-inden-2-yl)-1H-pyrazolo[3,4-d]pyrimidin-3-yl]prop-2-enamide]
8 | 10.3 | – | 5.45 | – | – | – | – | – | Nc1ncnc2c1c(-c1ccc(O)nc1)nn2C1CCc2ccccc2C1 (stereo not drawn) [compound 24, 5-(4-amino-1-(1,2,3,4-tetrahydronaphthalen-2-yl)-1H-pyrazolo[3,4-d]pyrimidin-3-yl)pyridin-2-ol]
9 | 9.31 | – | 3.3 | – | 11.71 | 1.24 | – | – | COc1cc(-c2nn(C3Cc4ccccc4C3)c3ncnc(N)c23)cc(C(F)(F)F)c1F [Compound No. 92, 1-(2,3-dihydro-1H-inden-2-yl)-3-[4-fluoro-3-methoxy-5-(trifluoromethyl)phenyl]-1H-pyrazolo[3,4-d]pyrimidin-4-amine]
10 | 30.55 | 67.34 | 85.71 | 96.3 | – | – | 1290 | 21.2 | Cc1ccc(-c2nn(C3Cc4ccccc4C3)c3ncnc(N)c23)cc1N [Compound No. 46, 3-(3-amino-4-methylphenyl)-1-(2,3-dihydro-1H-inden-2-yl)-1H-pyrazolo[3,4-d]pyrimidin-4-amine]
11 | – | – | – | – | – | – | 104 | 192 | Nc1ncnc2c1c(-c1ccc(O)cc1)nn2C1CCc2ccccc2C1 (racemic) [compound 21, 4-(4-amino-1-(1,2,3,4-tetrahydronaphthalen-2-yl)-1H-pyrazolo[3,4-d]pyrimidin-3-yl)phenol]
12 | 0.0 | 4.07 | 2.74 | 5.76 | – | – | – | – | Nc1ncnc2c1c(/C=C/CO)nn2C1Cc2ccccc2C1 (single isomer, unassigned) [Compound No. 64, (2E)-3-[4-amino-1-(2,3-dihydro-1H-inden-2-yl)-1H-pyrazolo[3,4-d]pyrimidin-3-yl]prop-2-en-1-ol]
13 | −0.46 | 15.57 | 10.92 | 29.0 | – | – | – | – | Nc1ncnc2c1c(-c1ccc3c(c1)OC(F)(F)O3)nn2C1Cc2ccccc2C1 [Compound No. 75, 3-(2,2-difluoro-2H-1,3-benzodioxol-5-yl)-1-(2,3-dihydro-1H-inden-2-yl)-1H-pyrazolo[3,4-d]pyrimidin-4-amine]
14 | 7.12 | 11.95 | 1.56 | 16.21 | – | – | – | – | Nc1ncnc2c1c(N1CCOCC1)nn2C1Cc2ccccc2C1 [Compound No. 48, 1-(2,3-dihydro-1H-inden-2-yl)-3-(morpholin-4-yl)-1H-pyrazolo[3,4-d]pyrimidin-4-amine]
15 | 39.74 | – | 56.81 | – | 17.4 | 17.69 | 167 | 79.6 | Nc1ncnc2c1c(-c1ccc3c(c1)NCCO3)nn2C1Cc2ccccc2C1 [Compound No. 99, 1-(2,3-dihydro-1H-inden-2-yl)-3-(3,4-dihydro-2H-1,4-benzoxazin-6-yl)-1H-pyrazolo[3,4-d]pyrimidin-4-amine]
16 | 56.42 | – | 43.28 | – | – | – | – | – | Nc1ncnc2c1c(-c1ccc(Br)c(O)c1)nn2C1CCc2ccccc21 (stereo not drawn) [compound 36, 5-[4-amino-1-(2,3-dihydro-1H-inden-1-yl)-1H-pyrazolo[3,4-d]pyrimidin-3-yl]-2-bromophenol]
17 | 40.07 | 79.26 | 33.82 | 76.93 | – | – | 155 | 123 | Nc1ncnc2c1c(-c1ccc(Br)c(O)c1)nn2C1CCc2ccccc21 (stereo not drawn) [36b, 5-[4-amino-1-(2,3-dihydro-1H-inden-1-yl)-1H-pyrazolo[3,4-d]pyrimidin-3-yl]-2-bromophenol]
18 | 44.86 | – | 15.85 | – | – | – | – | – | Nc1ncnc2c1c(-c1ccc3cn[nH]c3c1)nn2C1CCc2ccccc2C1 (racemic) [compound 9, 3-(1H-indazol-6-yl)-1-(1,2,3,4-tetrahydronaphthalen-2-yl)-1H-pyrazolo[3,4-d]pyrimidin-4-amine]
19 | 30.15 | 81.32 | 30.42 | 76.1 | – | – | 645 | 575 | Nc1ncnc2c1c(-c1ccccc1CO)nn2C1Cc2ccccc2C1 [Compound No. 53, {2-[4-amino-1-(2,3-dihydro-1H-inden-2-yl)-1H-pyrazolo[3,4-d]pyrimidin-3-yl]phenyl}methanol]
20 | 78.41 | 100.0 | 9.61 | 48.47 | – | – | – | – | Nc1ncnc2c1c(-c1ccc3[nH]cnc3c1)nn2C1Cc2ccccc2C1 [Compound No. 47, 3-(1H-1,3-benzodiazol-5-yl)-1-(2,3-dihydro-1H-inden-2-yl)-1H-pyrazolo[3,4-d]pyrimidin-4-amine]

Row | Structure (SMILES) | PI3Kδ @ 0.1 μM (% Inh) [1] [% Inh] | PI3Kδ @ 1 μM (% Inh) [1] [% Inh] | BTK @ 0.1 μM (% Inh) [2] [% Inh] | BTK @ 1 μM (% Inh) [2] [% Inh] | PI3Kδ @ 0.01 μM (% Inh) [1] [% Inh] | BTK @ 0.01 μM (% Inh) [2] [% Inh] | IC50 [1] [nM] | IC50 [2] [nM]
21 | CCCCOc1cc(-c2nn(C3Cc4ccccc4C3)c3ncnc(N)c23)ccc1OC [Compound No. 90, 3-(3-butoxy-4-methoxyphenyl)-1-(2,3-dihydro-1H-inden-2-yl)-1H-pyrazolo[3,4-d]pyrimidin-4-amine] | 44.39 | – | 6.79 | – | 9.23 | 7.39 | – | –
